Assay results reported in US20130096067A1, “DROSOPHILA TUMOR STEM CELL MODEL AND USES THEREOF” (priority 2011, published 2013).
Where a name gives a salt, the structure may show the parent alone. Read-outs that look alike come from different tables or passages of the source. Square brackets hold non-standard residues; d marks the D form. Peptide text beside a SMILES is read from it. Phe(ol) = N[C@H](CO)Cc1ccccc1; Aib = CC(C)(N)C(=O)O

Test system: Raf-1^gof intestinal tumors
Conditions: for Fold: luciferase relative to DMSO, fed three consecutive days in vials; for Log2 (fold) of luciferase activity relative to DMSO controls / Fold (luciferase activity relative to DMSO controls): ICCB compounds fed in vials to flies with one-day old Raf-1^gof tumors
[1] = Table 3 summary of hits, Screen ICCB
[2] = screen of 480 ICCB compounds in vials, compounds fed to flies with one-day old Raf-1^gof tumors, assessed three days later, esg-Gal4 luciferase
[3] = screen of 480 ICCB compounds in vials, compounds fed to flies with one-day old Raf-1^gof tumors, assessed three days later, esg-Gal4 luciferase, averaged from multiple wells
[4] = assessed three days later, averaged from multiple wells
Throughout, for Fold (luciferase activity relative to DMSO controls): test concentration or dose not given here.
Throughout, for Fold (luciferase activity, fold difference relative to DMSO controls): test concentration or dose not given here.
Throughout, for Log2 (fold) (luciferase activity, log2 of the fold difference relative to DMSO controls): test concentration or dose not given here.
Throughout, for Log2 (fold) of luciferase activity relative to DMSO controls: test concentration or dose not given here.

Row | Molecule | Log2 (fold) (luciferase activity, log2 of the fold difference relative to DMSO controls) [2] | Fold (luciferase activity, fold difference relative to DMSO controls) [3] | Log2 (fold) of luciferase activity relative to DMSO controls (assessed three days later) | Fold (luciferase activity relative to DMSO controls) [4] | further results
1 | C=C1[C@@H](O)[C@@H]2O[C@]3(CC[C@H](/C=C/[C@@H](C)[C@@H]4CC(C)=C[C@@]5(O[C@H](C[C@@](C)(O)C(=O)O)CC[C@H]5O)O4)O3)CC[C@H]2O[C@@H]1[C@@H](O)C[C@H](C)[C@H]1O[C@@]2(CCCCO2)CC[C@H]1C [okadaic acid, reference compound] | −1.713 | 0.305 | – | – | Fold [1]: 0.305 fold
2 | CC(C)(C)n1nc(-c2ccc(Cl)cc2)c2c(N)ncnc21 [PP2] | – | – | 0.062 | 1.044 fold | –
3 | Oc1cc(O)cc(/C=C/c2ccc(O)c(O)c2)c1 [Piceatannol, reference compound] | −1.020 | 0.493 | – | – | Fold [1]: 0.493 fold
4 | CCCCCCCCCCCCC/C=C/[C@@H](O)[C@H](CO)NC(C)=O [C2 CERAMIDE] | −0.493 | 0.711 | – | – | –
5 | CCCCCC[C@@H]([C@@H](C)O)n1cnc2c(N)ncnc21.Cl [EHNA HCl] | −0.312 | 0.805 | – | – | –
6 | CC(=O)N[C@@H](CSC/C=C(\C)CCC=C(C)C)C(=O)O [AGC] | −0.508 | 0.703 | – | – | –
7 | CC(C)n1cnc2c(NCc3ccccc3)nc(NCCO)nc21 [N9-Isopropylolomoucine] | −0.490 | 0.712 | – | – | –
8 | O=C(Nc1ccccc1)c1cc([N+](=O)[O-])ccc1Cl [GW-9662] | −0.581 | 0.669 | – | – | –
9 | Ro 20-1724 | −0.242 | 0.846 | – | – | –
10 | CC[N+](CC)(CC)CC(=O)Nc1c(C)cccc1C [QX-314] | – | – | 0.146 | 1.107 fold | –
11 | O=C(O)c1cccnc1Nc1cccc(C(F)(F)F)c1 [NIFLUMIC ACID] | – | – | −0.201 | 0.870 fold | –
12 | COC(=O)C1=C(C)NC(C)=C(C(=O)OCCN(C)Cc2ccccc2)C1c1cccc([N+](=O)[O-])c1 (stereo not shown) [NICARDIPINE] | −0.433 | 0.741 | – | – | –
13 | CCCCCCCCCCCC=CCC=CCCCC(=O)O [EICOSA-5,8-DIENOIC ACID (20:2 n-12)] | – | – | −0.149 | 0.902 fold | –
14 | CCCCC/C=C\C/C=C\C/C=C\CCCCCCC(=O)O [DIHOMO-GAMMA-LINOLENIC ACID] | – | – | 0.323 | 1.251 fold | –
15 | CN(C)C(=O)C(CCN1CCC(O)(c2ccc(Cl)cc2)CC1)(c1ccccc1)c1ccccc1 [LOPERAMIDE] | – | – | – | – | Fold (luciferase activity, fold difference relative to DMSO controls) (in vivo): 0.786; Log2 (fold) (luciferase activity, log2 of the fold difference relative to DMSO controls) (in vivo): −0.347
16 | CCOC(=O)C1=C(C)NC(C)=C(C(=O)OC)C1c1cccc([N+](=O)[O-])c1 (stereo not shown) [NITRENDIPINE] | −0.400 | 0.758 | – | – | –
17 | CCCNCC(O)COc1ccccc1C(=O)CCc1ccccc1 (stereo not shown) [PROPAFENONE] | −0.214 | 0.862 | – | – | –
18 | Nc1cc(N2CCCCC2)nc(N)[n+]1OS(=O)(=O)[O-] [MINOXIDIL SULFATE] | −0.417 | 0.749 | – | – | –
19 | COCCOC(=O)C1=C(C)NC(C)=C(C(=O)OC(C)C)C1c1cccc([N+](=O)[O-])c1 (stereo not shown) [NIMODIPINE] | −0.238 | 0.848 | – | – | –
20 | [Cl-].c1ccc2c(c1)[I+]c1ccccc1-2 [diphenyleneiodonium Cl] | −0.576 | 0.671 | – | – | –
21 | CC(C)[C@]12O[C@H]1[C@@H]1O[C@]13[C@]1(O[C@H]1C[C@H]1C4=C(CC[C@@]13C)C(=O)OC4)[C@@H]2O [triptolide, reference compound] | – | – | – | – | Log2 (fold) [1]: −2.553
22 | CCCCC/C=C\C/C=C\C/C=C\C/C=C\CCCC(=O)O [ARACHIDONIC ACID (20:4, n-6)] | – | – | −0.045 | 0.969 fold | –

Row | Molecule | Log2 (fold) (luciferase activity, log2 of the fold difference relative to DMSO controls) [2] | Fold (luciferase activity, fold difference relative to DMSO controls) [3] | Log2 (fold) of luciferase activity relative to DMSO controls (assessed three days later) | Fold (luciferase activity relative to DMSO controls) [4] | further results
23 | Cc1ccc(S(=O)(=O)NC(=O)NN2CCCCCC2)cc1 [TOLAZAMIDE] | −0.365 | 0.776 | – | – | –
24 | CN/C(=N\c1ccc(C2=NNC(=O)CC2C)cc1)NC#N (stereo not shown) [siguazodan] | −0.376 | 0.771 | – | – | –
25 | CCCC[C@H]1C(=O)O[C@H](C)[C@H](NC(=O)c2cccc(NC=O)c2OC)C(=O)O[C@@H](C)[C@@H]1OC(=O)CC(C)C [2-methoxyantimycin A3] | −0.873 | 0.546 | – | – | –
26 | CCCC[C@@H](C=O)NC(=O)[C@H](CC(C)C)NC(=O)OCc1ccccc1 [calpeptin] | −0.235 | 0.849 | – | – | –
27 | CCCCCCCC/C=C\C/C=C\C/C=C\CCCC(=O)O [MEAD ACID (20:3 n-9)] | −0.279 | 0.824 | – | – | –
28 | CCCCCCCCCCCCCCCCOCC(CO)OC(C)=O (stereo not shown) [1-HEXADECYL-2-O-ACETYL-GLYCEROL] | – | – | 0.518 | 1.432 fold | –
29 | CCCCCCCC(=O)OC[C@H](CO)OC(=O)CCCCCCC [1,2-DIOCTANOYL-SN-GLYCEROL] | – | – | −0.080 | 0.946 fold | –
30 | CCCCCCCCCCCCCCCCOC[C@H](COP(=O)([O-])OCC[N+](C)(C)C)OC(=O)NC [C-PAF] | – | – | 0.119 | 1.086 fold | –
31 | CCCCC[C@H](O)/C=C/[C@@H]1[C@@H](C/C=C\CCCC(=O)O)[C@H]2CO[C@@H]1C2 [U-46619] | – | – | −0.063 | 0.957 fold | –
32 | FC(F)(F)c1ccccc1-n1ccnc1 [TRIM] | – | – | −0.160 | 0.895 fold | –
33 | C=C(C)[C@@H]1CC[C@]2(C(=O)O)CC[C@]3(C)[C@H](CC[C@@H]4[C@@]5(C)CC[C@H](O)C(C)(C)[C@@H]5CC[C@]43C)[C@@H]12 [Betulinic acid] | −0.708 | 0.612 | – | – | –
34 | CN(C)c1ccc(/C=C2\C(=O)Nc3ccccc32)cc1 [SU-4312] | – | – | 0.118 | 1.085 fold | –
35 | C=C1[C@@H](C)[C@H]2[C@H](Cc3ccccc3)NC(=O)[C@]23OC(=O)/C=C/[C@H](O)CCC[C@@H](C)C/C=C/[C@H]3[C@@H]1O [cytochalasin B] | −0.677 | 0.625 | – | – | –
36 | C[C@@H](N)[C@H]1CC[C@H](C(=O)Nc2ccncc2)CC1 [Y-27632] | −0.380 | 0.768 | – | – | –
37 | CCCC(=O)Nc1nc2c(ncn2C2O[C@H]3COP(=O)(O)O[C@@H]3[C@@H]2OC(=O)CCC)c(=O)[nH]1 (stereo partly shown) [dibutyrylcyclic GMP] | −0.342 | 0.789 | – | – | –
38 | CCCCC/C=C\C/C=C\C/C=C\CCCCCCC(=O)NCCO [ANANDAMIDE (20:3, n-6)] | −0.653 | 0.636 | – | – | –
39 | O=C1C(SCCO)=C(SCCO)C(=O)c2ccccc21 [NSC-95397] | −0.495 | 0.709 | – | – | –
40 | CC(=O)NC(C)(C)C(=O)N1CCC[C@H]1C(=O)NC(C)(C)C(=O)N[C@@H](C)C(=O)NC(C)(C)C(=O)N[C@@H](C)C(=O)N[C@@H](CCC(N)=O)C(=O)NC(C)(C)C(=O)N[C@H](C(=O)NC(C)(C)C(=O)NCC(=O)N[C@@H](CC(C)C)C(=O)NC(C)(C)C(=O)N1CCC[C@H]1C(=O)N[C@H](C(=O)NC(C)(C)C(=O)NC(C)(C)C(=O)N[C@@H](CCC(=O)O)C(=O)N[C@@H](CCC(N)=O)C(=O)N[C@H](CO)Cc1ccccc1)C(C)C)C(C)C [alamethicin, reference compound] (Ac-[Aib]P[Aib]A[Aib]AQ[Aib]V[Aib]GL[Aib]PV[Aib][Aib]EQ[Phe(ol)]) | −1.167 | 0.445 | – | – | Fold [1]: 0.445 fold
41 | NC(=O)c1ccc(-c2nc(-c3ccccn3)c(-c3ccc4c(c3)OCO4)[nH]2)cc1 [SB-431542] | – | – | 0.068 | 1.048 fold | –
42 | CCCCNC(=O)NS(=O)(=O)c1ccc(C)cc1 [TOLBUTAMIDE] | −0.494 | 0.710 | – | – | –
43 | CCCCC[C@H](O)/C=C/[C@H]1[C@H](O)CC(=O)[C@@H]1CCCCCCC(=O)O [PROSTAGLANDIN E1] | −0.561 | 0.678 | – | – | –
